The values that follow come from US20240336574A1 (LATIGO BIOTHERAPEUTICS, INC., priority 2021, published 2024).

For this experiment, the target named is T1, recombinant human NaV1.8 stably transfected HEK cells (Homo sapiens, UniProt Q9Y5Y9).
T1 construct: expressed in transfected cells; host or cells: HEK cells, stably transfected
The experiment in a line: Compound profiling on NaV1.8, human NaV1.8 cell line, SyncroPatch384PE automated patch clamp assay (Example 115, third set of compounds, Table 27). It counts as cell-based. The following applies: human NaV1.8 HEK cells, Table 27 (third set of compounds). How it is done: Compound Profiling on NaV1.8 Human NaV1.8 Cell Line SyncroPatch384PE Assay
Compounds were tested on recombinant human NaV1.8 stably transfected HEK cells using the SyncroPatch384PE system, an automated patch clamp device. Cells were cultured at 37° C./5% CO2 in DMEM medium supplemented with GlutaMAX I, NEAA 1%, FBS 10% and seeded in T175 flasks. Cells were cultured at 30° C. one day prior to recording sodium currents. On the day of the recordings, cells were detached with 0.05% Trypsin-EDTA, resuspended in serum free DMEM medium and placed into the SyncroPatch384PE 6° C. pre-cooled cell hotel and shaken at 200 rpm. Intracellular solution (IC) contained, in mM: 10, CsCl; 110, CsF; 20, EGTA; 10, HEPES. Extracellular solution (EC) contained, in mM: 140, NaCl; 4, KCl; 5, Glucose; 10, HEPES; 2, CaCl2; 1, MgCl2. Washing solution contained, in mM: 40, NMDG; 100, NaCl; 4, KCl; 10, Glucose; 10, HEPES; 5, CaCl2; 1, MgCl2.
Compounds were tested in quadruplicates in 0.1% DMSO and 0.030% Pluronic Acid. Compounds were diluted 1:3.33 in EC solution to create a 10-point concentration response curve, spanning a final concentration range from 10-0.0002 μM in the assay plate. Compounds with low nM potency were retested using a lower concentration range (1-0.00002 μM). Each plate contained tetracaine and another tool compound as positive controls. Up to 7 compounds were tested on one plate. 150 μM tetracaine and 0.1% DMSO were used as high and low controls, respectively.
Whole cell patch clamp recordings were conducted according to Nanion's standard procedure for SyncroPatch384PE®. Cells were held at a holding potential of −120 mV. A depolarization step to 10 mV for 30 ms was applied (P1 measurement), followed by a hyperpolarization step to −100 mV for 100 ms. An inactivation step at −40 mV for 10 sec was applied before stepping to −100 mV for 20 ms, followed by a step to 10 mV for 30 ms (P2 measurement) and then back to −100 mV for 30 ms. Sweep interval was 15 sec with a sampling rate of 10 kHz. Following establishment of the whole-cell configuration in EC, two washing steps with reference buffer were performed to stabilize the baseline. Compounds were then applied by the SynchroPatch into each well and the current was recorded for five minutes in EC, followed by application of tetracaine to achieve full block at the end of the experiment. The potency of the compounds was assessed on two read-outs, resting state block (P1 measurement) or inactivated state block (P2 measurement) to obtain IC50 values. Values were normalized to high (tetracaine) and low (DMSO) controls.
For orientation: The patch-clamp technique gives a direct electrical read-out from membranes.

Where [1] appears, read: inactivated state block (P2 measurement), read-out: P2 IC50.
[2] abbreviates: resting state block (P1 measurement), read-out: P1 IC50.

Like-named read-outs stand apart in the source and are kept apart here. Where only a bound is given, the exact number is not on record here.

T1 sequence (Q9Y5Y9 whole entry): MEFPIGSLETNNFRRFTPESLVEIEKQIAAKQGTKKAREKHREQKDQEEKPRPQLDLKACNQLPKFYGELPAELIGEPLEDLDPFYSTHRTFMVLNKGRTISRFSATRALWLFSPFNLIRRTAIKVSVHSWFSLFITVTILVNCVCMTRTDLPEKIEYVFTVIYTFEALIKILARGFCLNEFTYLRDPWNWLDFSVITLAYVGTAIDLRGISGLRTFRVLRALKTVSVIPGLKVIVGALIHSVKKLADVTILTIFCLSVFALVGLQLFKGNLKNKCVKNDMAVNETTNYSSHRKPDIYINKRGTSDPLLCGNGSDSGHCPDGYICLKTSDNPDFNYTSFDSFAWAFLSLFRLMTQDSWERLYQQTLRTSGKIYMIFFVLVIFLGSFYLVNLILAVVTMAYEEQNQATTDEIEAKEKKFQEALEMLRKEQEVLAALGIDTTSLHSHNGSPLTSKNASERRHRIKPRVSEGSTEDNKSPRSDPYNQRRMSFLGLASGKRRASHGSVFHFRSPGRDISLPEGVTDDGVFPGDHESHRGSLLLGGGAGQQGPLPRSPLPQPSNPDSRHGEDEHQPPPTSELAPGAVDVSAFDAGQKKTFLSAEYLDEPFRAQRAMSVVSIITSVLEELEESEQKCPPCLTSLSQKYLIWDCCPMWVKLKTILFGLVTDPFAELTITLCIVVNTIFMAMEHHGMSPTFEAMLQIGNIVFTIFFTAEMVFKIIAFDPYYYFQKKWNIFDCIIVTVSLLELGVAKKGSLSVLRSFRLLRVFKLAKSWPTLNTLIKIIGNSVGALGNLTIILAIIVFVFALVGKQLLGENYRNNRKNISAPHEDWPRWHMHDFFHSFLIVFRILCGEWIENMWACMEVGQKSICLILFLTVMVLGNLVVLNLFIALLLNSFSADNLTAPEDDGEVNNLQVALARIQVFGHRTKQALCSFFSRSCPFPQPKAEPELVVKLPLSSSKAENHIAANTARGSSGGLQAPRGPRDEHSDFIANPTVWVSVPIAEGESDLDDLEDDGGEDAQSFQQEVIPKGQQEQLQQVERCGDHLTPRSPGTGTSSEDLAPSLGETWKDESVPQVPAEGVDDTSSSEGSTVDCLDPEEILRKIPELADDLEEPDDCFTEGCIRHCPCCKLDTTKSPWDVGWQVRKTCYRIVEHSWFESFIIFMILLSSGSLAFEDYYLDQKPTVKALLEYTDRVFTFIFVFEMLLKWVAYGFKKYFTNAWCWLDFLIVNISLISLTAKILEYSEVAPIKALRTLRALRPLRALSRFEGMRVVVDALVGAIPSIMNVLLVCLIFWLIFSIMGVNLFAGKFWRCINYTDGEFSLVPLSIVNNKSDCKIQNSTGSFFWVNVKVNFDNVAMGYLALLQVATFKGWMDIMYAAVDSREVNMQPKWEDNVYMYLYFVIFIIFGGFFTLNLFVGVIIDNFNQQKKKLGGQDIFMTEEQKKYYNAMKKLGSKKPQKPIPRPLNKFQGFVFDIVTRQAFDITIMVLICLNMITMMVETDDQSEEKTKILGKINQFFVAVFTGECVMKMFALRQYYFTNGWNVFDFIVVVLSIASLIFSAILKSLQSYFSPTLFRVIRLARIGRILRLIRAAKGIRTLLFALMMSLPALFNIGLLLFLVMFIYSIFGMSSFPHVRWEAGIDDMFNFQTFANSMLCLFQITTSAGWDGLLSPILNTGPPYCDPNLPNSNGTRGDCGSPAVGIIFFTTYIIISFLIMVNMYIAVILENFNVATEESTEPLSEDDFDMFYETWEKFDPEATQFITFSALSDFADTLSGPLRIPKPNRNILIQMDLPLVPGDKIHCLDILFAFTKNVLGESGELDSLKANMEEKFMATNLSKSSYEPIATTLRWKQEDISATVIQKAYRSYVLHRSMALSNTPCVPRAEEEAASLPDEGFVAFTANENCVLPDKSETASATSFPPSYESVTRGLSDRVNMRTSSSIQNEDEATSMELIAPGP

As usually defined, the IC50 is the concentration that gives 50% inhibition. `Cc1cc(C(F)(F)F)ccc1Oc1nnc(C(F)(F)F)cc1C(=O)Nc1cccc(S(C)(=O)=O)c1` [Compound 42]: the IC50 is, setting by setting: under setting [1], at most 200 nM; under setting [2], at most 200 nM.
Consider `Cc1cc(F)ccc1Oc1nnc(C(F)(F)F)cc1C(=O)Nc1cccc(S(N)(=O)=O)c1` [Compound 51], for which the IC50 was at most 200 nM under setting [1] and at most 200 nM under setting [2].
On to `COc1cc(F)ccc1Oc1nnc(C(F)(F)F)cc1C(=O)Nc1cccc(N2CCOC2=O)c1` [Compound 57], for which the IC50 was above 5000 nM under setting [1] and above 5000 nM under setting [2].
On to `Cc1cc(F)ccc1Oc1nnc(C(F)(F)F)cc1C(=O)Nc1ccc(S(C)(=O)=O)cc1` [Compound 40], for which the IC50 is, setting by setting: under setting [1], above 5000 nM; under setting [2], 1000 to 5000 nM.
Taken in the same sequence, the figures for `CS(=O)(=O)c1cncc(NC(=O)c2cc(C(F)(F)F)nnc2Oc2ccc(F)cc2Cl)c1` [Compound 66] were 1000 to 5000 nM and above 5000 nM.
The like results for `COc1ccc(F)cc1Oc1nnc(C(F)(F)F)cc1C(=O)Nc1cccc(S(N)(=O)=O)c1` [Compound 122, 3-(5-Fluoro-2-methoxyphenoxy)-N-(3-sulfamoylphenyl)-6-(trifluoromethyl)pyridazine-4-carboxamide] were, in that order, 201 to 500 nM and 501 to 1000 nM.
Take `Cc1cc(OC(F)(F)F)ccc1Oc1nnc(C(F)(F)F)cc1C(=O)Nc1cccc(S(N)(=O)=O)c1` [Compound 47]: the IC50 was at most 200 nM under setting [1] and at most 200 nM under setting [2].
Take `COc1cc(F)ccc1Oc1nnc(C(F)(F)F)cc1C(=O)Nc1ccc(C(N)=O)nc1` [Compound 125, N-(6-Carbamoylpyridin-3-yl)-3-(4-fluoro-2-methoxyphenoxy)-6-(trifluoromethyl)pyridazine-4-carboxamide]: the IC50 under setting [1] was in the range of 201 to 500 nM and the IC50 under setting [2] is at most 200 nM.
On to `COc1ccc(F)cc1Oc1nnc(C(F)(F)F)cc1C(=O)Nc1cccc(S(C)(=O)=O)c1` [Compound 81], for which the IC50 is 1000 to 5000 nM under setting [1] and 201 to 500 nM under setting [2].
The like results for `Cc1cc(C#N)ccc1Oc1nnc(C(F)(F)F)cc1C(=O)Nc1cccc(S(N)(=O)=O)c1` [Compound 123, 3-(4-Cyano-2-methylphenoxy)-N-(3-sulfamoylphenyl)-6-(trifluoromethyl)pyridazine-4-carboxamide] were, in that order, at most 200 nM and at most 200 nM.
Regarding `Cc1cc(F)ccc1Oc1nnc(C(F)(F)F)cc1C(=O)Nc1cccc([S@](C)(=N)=O)c1` [Compound 102, (R)-3-(4-fluoro-2-methylphenoxy)-N-(3-(S-methylsulfonimidoyl)phenyl)-6-(trifluoromethyl)pyridazine-4-carboxamide], the IC50 reads like this: under setting [1], 201 to 500 nM; under setting [2], 501 to 1000 nM.
Take `COc1cc(F)ccc1Oc1nnc(C)cc1C(=O)Nc1cccc([S+](C)[O-])c1` (centres unmarked) [Compound 105]: the IC50 is, setting by setting: under setting [1], above 5000 nM; under setting [2], above 5000 nM.
`Cc1cc(Br)ccc1Oc1nnc(C(F)(F)F)cc1C(=O)Nc1cccc(S(C)(=O)=O)c1` [Compound 82]: the IC50 is at most 200 nM under setting [1] and at most 200 nM under setting [2].
`COc1cc(F)ccc1Oc1nnc(C(F)(F)F)cc1C(=O)Nc1cccc(C(N)=O)c1` [Compound 26]: the concentration for half-maximal inhibition (IC50) was at most 200 nM under setting [1] and at most 200 nM under setting [2].
For `CS(=N)(=O)c1cccc(NC(=O)c2cc(C(F)(F)F)nnc2Oc2ccc(F)cc2Cl)c1` (centres unmarked) [Compound 96, 3-(2-Chloro-4-fluorophenoxy)-N-(3-(S-methylsulfonimidoyl)phenyl)-6-(trifluoromethyl)pyridazine-4-carboxamide], the IC50 fell in the range of 501 to 1000 nM under setting [1] and 201 to 500 nM under setting [2].
With `COC(=O)c1cncc(NC(=O)c2cc(C(F)(F)F)nnc2Oc2ccc(F)cc2OC)n1` [Compound 46], the IC50 is above 5000 nM under setting [1] and above 5000 nM under setting [2].
For the molecule `Cc1cc(F)ccc1Oc1nnc(C(F)(F)F)cc1C(=O)Nc1ccc(=O)[nH]c1C` [Compound 92, 3-(4-Fluoro-2-methylphenoxy)-N-(2-methyl-6-oxo-1,6-dihydropyridin-3-yl)-6-(trifluoromethyl)pyridazine-4-carboxamide], the IC50 reads like this: under setting [1], above 5000 nM; under setting [2], above 5000 nM.
For the molecule `COc1cc(F)ccc1Oc1nnc(C(F)(F)F)cc1C(=O)Nc1cccc(S(C)(=O)=O)n1` [Compound 15], the IC50 under setting [1] lay within 1000 to 5000 nM and the half-inhibitory concentration (IC50) under setting [2] was above 5000 nM.
Turning to `Cc1cc(F)ccc1Oc1nnc(C(F)(F)F)cc1C(=O)Nc1ccn2nnnc2c1` [Compound 135, 3-(4-Fluoro-2-methylphenoxy)-N-(tetrazolo[1,5-a]pyridin-7-yl)-6-(trifluoromethyl)pyridazine-4-carboxamide], the IC50 is 501 to 1000 nM under setting [1] and at most 200 nM under setting [2].
The like results for `Cc1cc(-c2cn[nH]c2)ccc1Oc1nnc(C(F)(F)F)cc1C(=O)Nc1cccc(S(C)(=O)=O)c1` [Compound 133, 3-[2-Methyl-4-(1H-pyrazol-4-yl)phenoxy]-N-(3-methylsulfonylphenyl)-6-(trifluoromethyl)pyridazine-4-carboxamide] were, in that order, above 5000 nM and above 5000 nM.
Taken in the same sequence, the figures for `Cc1c[nH]c(=O)cc1NC(=O)c1cc(C(F)(F)F)nnc1Oc1ccc(F)cc1C` [Compound 90, 3-(4-Fluoro-2-methylphenoxy)-N-(5-methyl-2-oxo-1,2-dihydropyridin-4-yl)-6-(trifluoromethyl)pyridazine-4-carboxamide] were above 5000 nM and above 5000 nM.
With `CS(=O)(=O)c1cccc(NC(=O)c2cc(C(F)(F)F)nnc2Oc2ccc(F)cc2Cl)c1` [Compound 64], the half-inhibitory concentration (IC50) under setting [1] is at most 200 nM and the IC50 under setting [2] was at most 200 nM.
On to `Cc1cc(C#N)ccc1Oc1nnc(C(F)(F)F)cc1C(=O)Nc1cccc(C(N)=O)c1` [Compound 79], for which the IC50 is, setting by setting: under setting [1], 201 to 500 nM; under setting [2], 201 to 500 nM.
As for `Cc1cc(F)ccc1Oc1nnc(C(F)(F)F)cc1C(=O)Nc1cccc(-c2cc[nH]n2)c1` [Compound 85], the IC50 by setting is: under setting [1], above 5000 nM; under setting [2], above 5000 nM.
As to `COc1cc(F)ccc1Oc1nnc(C(F)(F)F)cc1C(=O)Nc1cccc(S(=O)(=O)C(C)C)c1` [Compound 17], the IC50 was 201 to 500 nM under setting [1] and 501 to 1000 nM under setting [2].
For `Cc1cc(F)ccc1Oc1nnc(C(F)(F)F)cc1C(=O)Nc1cccc(-n2cncn2)c1` [Compound 9], the concentration for half-maximal inhibition (IC50) under setting [1] lay in the range of 1000 to 5000 nM and the IC50 under setting [2] is above 5000 nM.
The like results for `CS(=O)(=O)c1cccc(NC(=O)c2cc(C(F)(F)F)nnc2Oc2cccc(OC(F)(F)F)c2)c1` [Compound 52] were, in that order, above 5000 nM and above 5000 nM.
Turning to `Cc1cc(-c2cnoc2)ccc1Oc1nnc(C(F)(F)F)cc1C(=O)Nc1cccc(S(C)(=O)=O)c1` [Compound 132, N-(3-Methanesulfonylphenyl)-3-[2-methyl-4-(1,2-oxazol-4-yl)phenoxy]-6-(trifluoromethyl)pyridazine-4-carboxamide], the IC50 is at most 200 nM under setting [1] and 201 to 500 nM under setting [2].
With `O=C1NCc2ccc(NC(=O)c3cc(C(F)(F)F)nnc3Oc3ccc(F)cc3Cl)cc21` [Compound 69], the IC50 is above 5000 nM under setting [1] and above 5000 nM under setting [2].
For the molecule `CSc1ccc(NC(=O)c2cc(C(F)(F)F)nnc2Oc2ccc(F)cc2C)cc1` [Compound 32], the IC50 is, setting by setting: under setting [1], above 5000 nM; under setting [2], above 5000 nM.
Consider `COc1cc(F)ccc1Oc1nnc(C(F)(F)F)cc1C(=O)Nc1ccn2cnnc2c1` [Compound 21], for which the IC50 under setting [1] is 501 to 1000 nM and the IC50 under setting [2] was in the range of 501 to 1000 nM.
In the case of `CS(=O)(=O)c1ccc(F)c(NC(=O)c2cc(C(F)(F)F)nnc2Oc2cc(F)ccc2Cl)c1` [Compound 74], the IC50 reads like this: under setting [1], 501 to 1000 nM; under setting [2], at most 200 nM.
For `COc1cc(F)ccc1Oc1nnc(C(F)(F)F)cc1C(=O)Nc1cccc(S(N)(=O)=O)c1` [Compound 39], the IC50 is at most 200 nM under setting [1] and at most 200 nM under setting [2].
For the molecule `Cc1cc(F)ccc1Oc1nnc(C(F)(F)F)cc1C(=O)Nc1cc[nH]c(=O)c1C` [Compound 91, 3-(4-Fluoro-2-methylphenoxy)-N-(3-methyl-2-oxo-1,2-dihydropyridin-4-yl)-6-(trifluoromethyl)pyridazine-4-carboxamide], the IC50 was above 5000 nM under setting [1] and above 5000 nM under setting [2].
